# Legend:
# SK-MEL-2 = experiment: NCI-60 in vitro tumor cell screen, SK-MEL-2; assay type: cell-based; details: Homo sapiens; SK-MEL-2, Melanoma
# Method: (§1) All the synthesized thiazoles 1a–l, 2a–j, 3a–f and 4a–f were evaluated by the National Cancer Institute (Bethesda MD) for cytotoxicity against the NCI-60 cell line panel using standard protocols. Initially, all derivatives were tested at a single dose (10^−5 M) on the full panel of approximately 60 human tumor cell lines derived from 9 human cancer cell types, that have been grouped in disease sub-panels including leukemia, non-small-cell lung, colon, central nervous system (CNS), melanoma, ovarian, renal, prostate and breast cancers (data not shown). Compounds 1k and 4c were further selected for full evaluation at five concentration levels (10^−4–10^−8 M).
# (§2) The antitumor activity of compounds 1k and 4c was given by three parameters for each cell line: GI50 (GI50 is the molar concentration of the compound that inhibits 50% net cell growth), TGI (TGI is the molar concentration of the compound leading to total inhibition of net cell growth), and LC50 (LC50 is the molar concentration of the compound that induces 50% net cell death). The average values of mean graph midpoint (MG_MID) were calculated for each of these parameters.
# CAKI-1 = experiment: NCI-60 in vitro tumor cell screen, CAKI-1; assay type: cell-based; details: Homo sapiens; CAKI-1, Renal Cancer
# Method: as §1, §2
# DU-145 = experiment: NCI-60 in vitro tumor cell screen, DU-145; assay type: cell-based; details: Homo sapiens; DU-145, Prostate Cancer
# Method: as §1, §2
# U251 = experiment: NCI-60 in vitro tumor cell screen, U251; assay type: cell-based; details: Homo sapiens, U-251; U251, CNS Cancer
# Method: as §1, §2
# SF-539 = experiment: NCI-60 in vitro tumor cell screen, SF-539; assay type: cell-based; details: Homo sapiens; SF-539, CNS Cancer
# Method: as §1, §2
# KM12 = experiment: NCI-60 in vitro tumor cell screen, KM12; assay type: cell-based; details: Homo sapiens; KM12, Colon Cancer
# Method: as §1, §2
# SW-620 = experiment: NCI-60 in vitro tumor cell screen, SW-620; assay type: cell-based; details: Homo sapiens; SW-620, Colon Cancer
# Method: as §1, §2
# HCT-116 cells [1] = experiment: Phosphatidylserine exposure, Annexin V-FITC/PI flow cytometry; assay type: cell-based, human; details: 24 h
# Method: The apoptosis-induced PS externalization to the cell surface was measured by flow cytometry by double staining with Annexin V-Fluorescein isothiocyanate (Annexin V-FITC)/propidium iodide (PI). Annexin V binding to phosphatidylserine is used to identify the earliest stage of apoptosis. […] After 24 h treatment, HCT-116 cells were harvested by trypsinization and adjusted at 1.0 × 10^6 cells/mL with combining buffer according to the manufacturer instructions (eBioscience, San Diego, CA, USA). One hundred μL of cell suspensions were added to a new tube, and incubated with Annexin V-FITC and PI solution at room temperature in the dark for 15 min. Then samples of at least 1.0 × 10^4 cells were subjected to FACS analysis using appropriate 2-bidimensional gating method.
# HCT-15 = experiment: NCI-60 in vitro tumor cell screen, HCT-15; assay type: cell-based; details: Homo sapiens; HCT-15, Colon Cancer
# Method: as §1, §2
# SNB-19 = experiment: NCI-60 in vitro tumor cell screen, SNB-19; assay type: cell-based; details: Homo sapiens; SNB-19, CNS Cancer
# Method: as §1, §2
# HOP-92 = experiment: NCI-60 in vitro tumor cell screen, HOP-92; assay type: cell-based; details: Homo sapiens; HOP-92, Non-Small Cell Lung Cancer
# Method: as §1, §2
# NCI/ADR-RES = experiment: NCI-60 in vitro tumor cell screen, NCI/ADR-RES; assay type: cell-based; details: Homo sapiens, Ovarian Cancer
# Method: as §1, §2
# HCT-116 cells [2] = experiment: Mitochondrial transmembrane potential (DiOC6 flow cytofluorometry); assay type: cell-based, human; details: 24 h
# Method: Changes of mitochondrial transmembrane potential (Δψm) were assessed by flow cytofluorometry, using the cationic lipophilic dye 3,3′-dihexyloxacarbocyanine iodide(3) (DiOC6) (Molecular Probes, Inc., Life Technologies Italia, Monza, Italy) which accumulates in the mitochondrial matrix. Changes in mitochondrial membrane potential are indicated by a reduction in the DiOC6-induced fluorescence intensity. After 24 h treatment, HCT116 cells were incubated with DiOC6 at a 40 nmol/L final concentration, for 15 min at 37 °C. After centrifugation, cells were washed with PBS and suspended in 500 μL PBS. Fluorescent intensities were analysed in at least 1 × 10^4 cells for each sample.
# SK-OV-3 = experiment: NCI-60 in vitro tumor cell screen, SK-OV-3; assay type: cell-based; details: Homo sapiens; SK-OV-3, Ovarian Cancer
# Method: as §1, §2
# OVCAR-8 = experiment: NCI-60 in vitro tumor cell screen, OVCAR-8; assay type: cell-based; details: Homo sapiens; OVCAR-8, Ovarian Cancer
# Method: as §1, §2
# RPMI-8226 = experiment: NCI-60 in vitro tumor cell screen, RPMI-8226; assay type: cell-based; details: Homo sapiens; RPMI-8226, Leukemia
# Method: as §1, §2
# HCT-116 = experiment: NCI-60 in vitro tumor cell screen, HCT-116; assay type: cell-based; details: Homo sapiens; HCT-116, Colon Cancer; measured by NCI after 72 h treatment
# Method: as §1, §2
# MDA-MB-468 = experiment: NCI-60 in vitro tumor cell screen, MDA-MB-468; assay type: cell-based; details: Homo sapiens; MDA-MB-468, Breast Cancer
# Method: as §1, §2
# TK-10 = experiment: NCI-60 in vitro tumor cell screen, TK-10; assay type: cell-based; details: Homo sapiens; TK-10, Renal Cancer
# Method: as §1, §2
# UACC-62 = experiment: NCI-60 in vitro tumor cell screen, UACC-62; assay type: cell-based; details: Homo sapiens; UACC-62, Melanoma
# Method: as §1, §2
# NCI-H460 = experiment: NCI-60 in vitro tumor cell screen, NCI-H460; assay type: cell-based; details: Homo sapiens; NCI-H460, Non-Small Cell Lung Cancer
# Method: as §1, §2
# SF-295 = experiment: NCI-60 in vitro tumor cell screen, SF-295; assay type: cell-based; details: Homo sapiens; SF-295, CNS Cancer
# Method: as §1, §2
# CCRF-CEM = experiment: NCI-60 in vitro tumor cell screen, CCRF-CEM; assay type: cell-based; details: Homo sapiens, Leukemia
# Method: as §1, §2
# MOLT-4 = experiment: NCI-60 in vitro tumor cell screen, MOLT-4; assay type: cell-based; details: Homo sapiens; MOLT-4, Leukemia
# Method: as §1, §2
# SK-MEL-5 = experiment: NCI-60 in vitro tumor cell screen, SK-MEL-5; assay type: cell-based; details: Homo sapiens; SK-MEL-5, Melanoma
# Method: as §1, §2
# M14 = experiment: NCI-60 in vitro tumor cell screen, M14; assay type: cell-based; details: Homo sapiens; M14, Melanoma
# Method: as §1, §2
# ACHN = experiment: NCI-60 in vitro tumor cell screen, ACHN; assay type: cell-based; details: Homo sapiens, Renal Cancer
# Method: as §1, §2
# MCF7 = experiment: NCI-60 in vitro tumor cell screen, MCF7; assay type: cell-based; details: Homo sapiens; MCF7, Breast Cancer
# Method: as §1, §2
# MDA-MB-435 = experiment: NCI-60 in vitro tumor cell screen, MDA-MB-435; assay type: cell-based; details: Homo sapiens; MDA-MB-435, Melanoma
# Method: as §1, §2
# T-47D = experiment: NCI-60 in vitro tumor cell screen, T-47D; assay type: cell-based; details: Homo sapiens, T47D, Breast Cancer
# Method: as §1, §2
# [3] = concentration GI30, control 3.9%
# [4] = concentration GI70, control 3.9%
Structure (SMILES),GI50 (SK-MEL-2) [µM],GI50 (CAKI-1) [nM],GI50 (DU-145) [nM],GI50 (U251) [nM],GI50 (SF-539) [µM],GI50 (KM12) [µM],GI50 (SW-620) [µM],apoptosis (Annexin V-FITC/PI staining) (HCT-116 cells [1]),GI50 (HCT-15) [µM],GI50 (SNB-19) [µM],GI50 (HOP-92) [µM],GI50 (NCI/ADR-RES) [µM],"mitochondrial transmembrane potential (Δψm) loss, AQ (HCT-116 cells [2]; [3]) [%]","mitochondrial transmembrane potential (Δψm) loss, AQ (HCT-116 cells [2]; [4]) [%]",GI50 (SK-OV-3) [µM],GI50 (OVCAR-8) [µM],GI50 (RPMI-8226) [µM],GI50 (HCT-116) [nM],GI50 (MDA-MB-468) [nM],GI50 (TK-10) [µM],other results
"Clc1nccc2c(-c3csc(-c4c[nH]c5ccc(Br)cc45)n3)c[nH]c12 [Compound 4c, 3-[2-(5-Bromo-1H-indol-3-yl)-1,3-thiazol-4-yl]-7-chloro-1H-pyrrolo[2,3-c]pyridine]",4.09,1960,1760,2050,1.87,2.15,1.92,evident only at high concentrations (GI70),1.4,3.25,2.43,2.71,3.8,14.7,2.78,3.65,4.03,2350,1180,4.16,GI50 (UACC-62): 2190 nM; GI50 (NCI-H460): 2160 nM; GI50 (SF-295): 2480 nM; GI50 (CCRF-CEM): 3.16 µM; GI50 (MOLT-4): 3.02 µM; GI50 (SK-MEL-5): 2610 nM; GI50 (M14): 2.22 µM; GI50 (ACHN): 2020 nM; GI50 (MCF7): 2.2 µM; GI50 (MDA-MB-435): 3.43 µM; GI50 (T-47D): 3120 nM
"Cn1cc(-c2csc(-c3c[nH]c4ncccc34)n2)c2cc(Br)cnc21 [Compound 1k, 5-Bromo-1-methyl-3-[2-(1H-pyrrolo[2,3-b]pyridin-3-yl)-1,3-thiazol-4-yl]-1H-pyrrolo[2,3-b]pyridine]",19.8,1560,3510,2700,27.7,5.7,4.46,percentage of cells in late apoptosis increased,13.7,6.74,5.03,3.88,26.0,35.3,3.25,3.72,> 100,2910,810,3.77,GI50 (UACC-62): 3470 nM; GI50 (NCI-H460): 2980 nM; GI50 (SF-295): 3010 nM; GI50 (CCRF-CEM): 6.81 µM; GI50 (MOLT-4): > 100 µM; GI50 (SK-MEL-5): 2050 nM; GI50 (M14): 4.06 µM; GI50 (ACHN): 2350 nM; GI50 (MCF7): 6.77 µM; GI50 (MDA-MB-435): 3.17 µM; GI50 (T-47D): 1800 nM

# From publication PMC4306947, “Synthesis and Antiproliferative Activity of Thiazolyl-bis-pyrrolo[2,3-b]pyridines and Indolyl-thiazolyl-pyrrolo[2,3-c]pyridines, Nortopsentin Analogues” (Marine Drugs, 2015)
